Test results taken from patent US6583180B2, “Glucocorticoid receptor modulators” (Abbott Laboratories, priority 2001, dated 2003).

Experiments:
[1] = target: T1, progesterone receptor (PR) (Homo sapiens, UniProt P06401); assay: Radioligand binding assay for progesterone receptor (similar protocol);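 note: radioligand binding measured with cytosol preparations containing the human progesterone receptor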
T1 sequence (P06401 1-933): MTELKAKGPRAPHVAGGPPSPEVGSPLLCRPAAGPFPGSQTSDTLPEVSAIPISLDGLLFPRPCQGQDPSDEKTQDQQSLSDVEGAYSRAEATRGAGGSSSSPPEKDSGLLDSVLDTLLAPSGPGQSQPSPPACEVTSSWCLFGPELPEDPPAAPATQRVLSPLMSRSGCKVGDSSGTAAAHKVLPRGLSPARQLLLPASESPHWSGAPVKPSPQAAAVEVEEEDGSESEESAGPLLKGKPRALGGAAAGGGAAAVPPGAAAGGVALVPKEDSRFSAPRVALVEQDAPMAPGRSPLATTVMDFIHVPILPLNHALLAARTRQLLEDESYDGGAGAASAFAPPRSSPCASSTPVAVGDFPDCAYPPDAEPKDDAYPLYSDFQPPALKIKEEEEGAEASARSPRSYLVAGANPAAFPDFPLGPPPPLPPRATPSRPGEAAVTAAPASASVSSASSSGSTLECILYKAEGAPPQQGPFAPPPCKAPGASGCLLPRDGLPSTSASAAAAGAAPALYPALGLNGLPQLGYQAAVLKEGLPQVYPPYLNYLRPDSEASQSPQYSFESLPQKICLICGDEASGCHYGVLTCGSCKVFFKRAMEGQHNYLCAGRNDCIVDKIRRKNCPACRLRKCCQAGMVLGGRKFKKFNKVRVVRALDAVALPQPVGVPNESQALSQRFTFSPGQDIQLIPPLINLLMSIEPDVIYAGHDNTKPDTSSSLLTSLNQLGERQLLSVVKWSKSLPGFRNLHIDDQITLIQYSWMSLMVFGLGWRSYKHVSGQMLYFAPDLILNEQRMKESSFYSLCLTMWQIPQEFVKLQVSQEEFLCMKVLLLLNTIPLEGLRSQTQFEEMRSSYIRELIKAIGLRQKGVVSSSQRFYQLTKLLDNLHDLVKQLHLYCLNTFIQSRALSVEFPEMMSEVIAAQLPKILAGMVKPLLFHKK
Text: Methods for Radiolipand Binding Studies with Human Glucocorticoid and Progesterone Receptor Cytosol

[2] = target: T2, Human glucocorticoid receptors (Homo sapiens, UniProt P04150); assay: Radioligand filter binding assay, displacement of 3[H]-dexamethasone from hGR; conditions: read-out: GR Binding (% Inhibition at 1.7 μM)
T2 construct: made in house; host or cells: Sf9 insect cells, recombinant baculovirus (BAC-TO-BAC)
T2 sequence (P04150 1-777): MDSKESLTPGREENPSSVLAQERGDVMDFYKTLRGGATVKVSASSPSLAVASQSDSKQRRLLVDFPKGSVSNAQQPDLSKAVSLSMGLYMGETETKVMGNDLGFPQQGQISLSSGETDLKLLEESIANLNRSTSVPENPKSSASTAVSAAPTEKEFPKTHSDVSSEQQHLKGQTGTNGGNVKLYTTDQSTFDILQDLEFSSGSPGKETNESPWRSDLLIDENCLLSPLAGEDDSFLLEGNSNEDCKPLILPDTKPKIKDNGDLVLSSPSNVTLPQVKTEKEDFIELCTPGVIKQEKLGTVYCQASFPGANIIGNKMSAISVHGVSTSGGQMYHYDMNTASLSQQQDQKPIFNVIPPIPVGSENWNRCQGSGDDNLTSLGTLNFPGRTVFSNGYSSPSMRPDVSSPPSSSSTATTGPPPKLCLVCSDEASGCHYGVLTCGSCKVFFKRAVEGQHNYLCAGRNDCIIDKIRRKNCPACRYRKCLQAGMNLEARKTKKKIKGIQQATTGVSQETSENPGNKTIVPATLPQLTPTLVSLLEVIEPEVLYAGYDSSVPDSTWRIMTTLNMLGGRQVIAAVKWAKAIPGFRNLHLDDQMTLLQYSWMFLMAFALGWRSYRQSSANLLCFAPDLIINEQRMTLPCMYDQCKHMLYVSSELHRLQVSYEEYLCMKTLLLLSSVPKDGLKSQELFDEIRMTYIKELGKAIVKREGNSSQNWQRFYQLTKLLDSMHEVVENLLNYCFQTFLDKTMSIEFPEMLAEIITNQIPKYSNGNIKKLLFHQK
How it was run: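 Recombinant hGR extract from baculovirus-infected Sf9 cells (final ~1 nM receptor) incubated with ³H-dexamethasone and test compound dilutions in duplicate, EDTA/phosphate pH 8 buffer with MTG, overnight (15-20 h) at +4° C. Bound label collected on PEI-treated GF/B filters and scintillation-counted; IC50 from four-parameter fit of corrected cpm.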

Row | IC50 [1] [nM] | inhibition at 1.7 µM [2] [%] | Compound
1 | > 10000 | 89.3 | CC#CCCOc1ccc(CN(Cc2ccc(F)cc2F)c2cccc(NS(C)(=O)=O)c2C)cc1 [Example 143, N-(3-{(2,4-difluorobenzyl)[4-(pent-3-ynyloxy)benzyl]amino}-2-methylphenyl)methanesulfonamide]
2 | 648 | 96.2 | COCCOc1cc(Oc2ccc(CN(Cc3ccccc3)c3cccc(NS(C)(=O)=O)c3C)cc2)ccc1CCCC(=O)O [Example 63]
3 | 1200 | 85.5 | COc1ccc(NS(C)(=O)=O)cc1N(Cc1ccccc1Br)Cc1ccccc1Br [Example 36, N-{3-[bis(2-bromobenzyl)amino]-4-methoxyphenyl}methanesulfonamide]
4 | 1290 | 96 | Cc1c(NS(C)(=O)=O)cccc1N(Cc1ccccc1)Cc1ccc(Oc2ccc(CCC(=O)NCCCC(=O)O)cc2)cc1 [Example 106, 4-{[3-(4-{4-[(benzyl{2-methyl-3-[(methylsulfonyl)amino]phenyl}amino)methyl]phenoxy}phenyl)propanoyl]amino}butanoic acid]
5 | 920 | 92 | Cc1c(NS(C)(=O)=O)cccc1N(Cc1ccccc1F)Cc1ccc(F)cc1F [Example 23, N-{3-[(2,4-difluorobenzyl)(2-fluorobenzyl)amino]-2-methylphenyl}methanesulfonamide]
6 | 1180 | 93.5 | CCOC(=O)CCCc1ccc(Oc2ccc(CN(Cc3ccccc3)c3cccc(NS(C)(=O)=O)c3C)cc2)cc1 [Example 64, ethyl 4-(4-{4-[(benzyl{2-methyl-3-[(methylsulfonyl)amino]phenyl}amino)methyl]phenoxy}phenyl)butanoate]
7 | 1100 | 97.2 | Cc1c(NS(C)(=O)=O)cccc1N(Cc1ccccc1)Cc1ccc(Oc2cccc(OCCNC(=O)CCCC(=O)O)c2)cc1 [Example 79, 5-{[2-(3-{4-[(benzyl{2-methyl-3-[(methylsulfonyl)amino]phenyl}amino)methyl]phenoxy}phenoxy)ethyl]amino}-5-oxopentanoic acid]
8 | 685 | 96.2 | Cc1c(NS(C)(=O)=O)cccc1N(Cc1ccccc1)Cc1ccc(Oc2ccc(CCC(=O)NCCC(=O)O)cc2)cc1 [Example 105, N-[3-(4-{4-[(benzyl{2-methyl-3-[(methylsulfonyl)amino]phenyl}amino)methyl]phenoxy}phenyl)propanoyl]-beta-alanine]
9 | 183 | 97 | Cc1c(NS(C)(=O)=O)cccc1N(Cc1ccc(Oc2cccc(OCCCC(=O)N(C)CC(=O)O)c2)cc1)Cc1ccc(F)cc1F [Example 326, N-(4-(3-(4-(((2,4-difluorobenzyl)(2-methyl-3-((methylsulfonyl)amino)phenyl)amino)methyl)phenoxy)phenoxy)butanoyl)-N-methylglycine]
10 | 249 | 97.1 | Cc1c(NS(C)(=O)=O)cccc1N(Cc1ccccc1)Cc1ccc(Oc2ccc(Br)c(OCC(=O)O)c2)cc1 [Example 77, (5-{4-[(benzyl{2-methyl-3-[(methylsulfonyl)amino]phenyl}amino)methyl]phenoxy}-2-bromophenoxy)acetic acid]
11 | 8050 | 85.4 | COc1ccc(Oc2ccc(CN(Cc3ccc(F)cc3F)c3cccc(NS(C)(=O)=O)c3C)cc2)cc1OC [Example 141, N-(3-{(2,4-difluorobenzyl)[4-(3,4-dimethoxyphenoxy)benzyl]amino}-2-methylphenyl)methanesulfonamide]
12 | 66.6 | 98.2 | Cc1c(NS(C)(=O)=O)cccc1N(Cc1ccc(Oc2ccc(Br)c(OCC(=O)O)c2)cc1)Cc1ccc(F)cc1F [Example 323, (2-bromo-5-(4-(((2,4-difluorobenzyl)(2-methyl-3-((methylsulfonyl)amino)phenyl)amino)methyl)phenoxy)phenoxy)acetic acid]
13 | > 1000 | 97.3 | Cc1c(NS(C)(=O)=O)cccc1N(Cc1ccccc1)Cc1ccc(Oc2cccc(OCCNC(=O)CCC(=O)O)c2)cc1 [Example 78, 4-{[2-(3-{4-[(benzyl{2-methyl-3-[(methylsulfonyl)amino]phenyl}amino)methyl]phenoxy}phenoxy)ethyl]amino}-4-oxobutanoic acid]
14 | 122 | 97.7 | Cc1c(NS(C)(=O)=O)cccc1N(Cc1ccc(Oc2cccc(OCCCC(=O)NCCCC(=O)O)c2)cc1)Cc1ccc(F)cc1F [Example 325, 4-((4-(3-(4-(((2,4-difluorobenzyl)(2-methyl-3-((methylsulfonyl)amino)phenyl)amino)methyl)phenoxy)phenoxy)butanoyl)amino)butanoic acid]
15 | > 10000 | 92.7 | Cc1c(NS(C)(=O)=O)cccc1N(Cc1ccc(OCC=Cc2ccccc2)cc1)Cc1ccc(F)cc1F [Example 33, N-{3-[(2,4-difluorobenzyl)(4-{[3-phenyl-2-propenyl]oxy}benzyl)amino]-2-methylphenyl}methanesulfonamide]
16 | 1790 | 87.5 | Cc1c(NS(C)(=O)=O)cccc1N(Cc1ccc(F)cc1F)Cc1ccccc1C#N [Example 25, N-{3-[(2-cyanobenzyl)(2,4-difluorobenzyl)amino]-2-methylphenyl}methanesulfonamide]
17 | 583 | 95.7 | Cc1c(NS(C)(=O)=O)cccc1N(Cc1ccccc1)Cc1ccc(Oc2ccc(CCC(=O)NCC(=O)O)cc2)cc1 [Example 104, N-[3-(4-{4-[(benzyl{2-methyl-3-[(methylsulfonyl)amino]phenyl}amino)methyl]phenoxy}phenyl)propanoyl]glycine]
18 | 430 | 84.2 | C=CCOc1ccc(CN(Cc2ccc(F)cc2F)c2cccc(NS(C)(=O)=O)c2C)cc1 [Example 20, N-{3-[[4-(allyloxy)benzyl](2,4-difluorobenzyl)amino]-2-methylphenyl}methanesulfonamide]
19 | 537 | 95.2 | Cc1c(NS(C)(=O)=O)cccc1N(Cc1ccccc1)Cc1ccc(Oc2cccc(OCCCNS(C)(=O)=O)c2)cc1 [Example 71, N-[3-(3-{4-[(benzyl{2-methyl-3-[(methylsulfonyl)amino]phenyl}amino)methyl]phenoxy}phenoxy)propyl]methanesulfonamid]
20 | 896 | 94.3 | Cc1c(NS(C)(=O)=O)cccc1N(Cc1ccccc1)Cc1ccc(Oc2ccc(CCC(=O)NCCO)cc2)cc1 [Example 152, 3-(4-{4-[(benzyl{2-methyl-3-[(methylsulfonyl)amino]phenyl}amino)methyl]phenoxy}phenyl)-N-(2-hydroxyethyl)propanamide]
21 | 667 | 89 | COC(=O)c1cccc(Oc2ccc(CN(Cc3ccc(F)cc3F)c3cccc(NS(C)(=O)=O)c3C)cc2)c1 [Example 67, methyl 3-{4-[((2,4-difluorobenzyl){2-methyl-3-[(methylsulfonyl)amino]phenyl}amino)methyl]phenoxy}benzoate]
22 | 1330 | 93.5 | Cc1c(NS(C)(=O)=O)cccc1N(Cc1ccccc1)Cc1ccc(Oc2ccc(CCC(=O)NCCN3CCOCC3)cc2)cc1 [Example 147, 3-(4-{4-[(benzyl{2-methyl-3-[(metbylsulfonyl)amino]phenyl}amino)methyl]phenoxy}phenyl)-N-(2-morpholin-4-ylethyl)propanamide]
